Test [1] concerns the target T1, Short transient receptor potential channel 3 (Homo sapiens, UniProt Q13507).
T1 sequence (Q13507 whole entry): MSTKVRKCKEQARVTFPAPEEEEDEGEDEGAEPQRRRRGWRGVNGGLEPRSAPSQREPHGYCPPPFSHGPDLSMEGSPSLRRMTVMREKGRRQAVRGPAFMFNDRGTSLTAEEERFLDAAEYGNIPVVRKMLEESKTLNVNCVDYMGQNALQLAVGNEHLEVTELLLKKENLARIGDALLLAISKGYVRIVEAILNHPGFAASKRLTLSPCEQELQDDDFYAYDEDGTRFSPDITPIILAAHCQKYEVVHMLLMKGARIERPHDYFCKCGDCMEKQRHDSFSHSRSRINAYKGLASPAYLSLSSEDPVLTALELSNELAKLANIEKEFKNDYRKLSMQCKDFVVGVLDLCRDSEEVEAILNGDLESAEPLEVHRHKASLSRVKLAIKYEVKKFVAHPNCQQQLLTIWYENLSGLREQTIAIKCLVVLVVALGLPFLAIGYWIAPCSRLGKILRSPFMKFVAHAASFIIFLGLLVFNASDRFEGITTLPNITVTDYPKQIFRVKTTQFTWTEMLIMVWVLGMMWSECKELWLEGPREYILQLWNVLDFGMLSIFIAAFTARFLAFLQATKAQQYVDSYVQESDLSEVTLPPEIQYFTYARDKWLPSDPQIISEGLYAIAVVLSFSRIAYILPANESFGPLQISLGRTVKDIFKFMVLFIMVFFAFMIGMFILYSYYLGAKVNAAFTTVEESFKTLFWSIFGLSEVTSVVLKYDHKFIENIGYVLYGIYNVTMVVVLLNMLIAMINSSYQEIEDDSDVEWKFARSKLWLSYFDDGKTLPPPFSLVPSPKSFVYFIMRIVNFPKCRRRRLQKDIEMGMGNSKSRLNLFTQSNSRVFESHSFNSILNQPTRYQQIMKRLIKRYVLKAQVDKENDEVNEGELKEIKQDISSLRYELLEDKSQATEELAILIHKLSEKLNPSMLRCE
Put plainly: Inhibition of YFP-tagged human TRPC3 expressed in thapsigargin treated HEK293 cells assessed as reduction in amix-induced calcium level by fluo-4 dye based fluorescence assay. The test is classed as cell-based.

In test [2] the target is T2, Short transient receptor potential channel 6 (Homo sapiens, UniProt Q9Y210).
T2 sequence (Q9Y210 whole entry): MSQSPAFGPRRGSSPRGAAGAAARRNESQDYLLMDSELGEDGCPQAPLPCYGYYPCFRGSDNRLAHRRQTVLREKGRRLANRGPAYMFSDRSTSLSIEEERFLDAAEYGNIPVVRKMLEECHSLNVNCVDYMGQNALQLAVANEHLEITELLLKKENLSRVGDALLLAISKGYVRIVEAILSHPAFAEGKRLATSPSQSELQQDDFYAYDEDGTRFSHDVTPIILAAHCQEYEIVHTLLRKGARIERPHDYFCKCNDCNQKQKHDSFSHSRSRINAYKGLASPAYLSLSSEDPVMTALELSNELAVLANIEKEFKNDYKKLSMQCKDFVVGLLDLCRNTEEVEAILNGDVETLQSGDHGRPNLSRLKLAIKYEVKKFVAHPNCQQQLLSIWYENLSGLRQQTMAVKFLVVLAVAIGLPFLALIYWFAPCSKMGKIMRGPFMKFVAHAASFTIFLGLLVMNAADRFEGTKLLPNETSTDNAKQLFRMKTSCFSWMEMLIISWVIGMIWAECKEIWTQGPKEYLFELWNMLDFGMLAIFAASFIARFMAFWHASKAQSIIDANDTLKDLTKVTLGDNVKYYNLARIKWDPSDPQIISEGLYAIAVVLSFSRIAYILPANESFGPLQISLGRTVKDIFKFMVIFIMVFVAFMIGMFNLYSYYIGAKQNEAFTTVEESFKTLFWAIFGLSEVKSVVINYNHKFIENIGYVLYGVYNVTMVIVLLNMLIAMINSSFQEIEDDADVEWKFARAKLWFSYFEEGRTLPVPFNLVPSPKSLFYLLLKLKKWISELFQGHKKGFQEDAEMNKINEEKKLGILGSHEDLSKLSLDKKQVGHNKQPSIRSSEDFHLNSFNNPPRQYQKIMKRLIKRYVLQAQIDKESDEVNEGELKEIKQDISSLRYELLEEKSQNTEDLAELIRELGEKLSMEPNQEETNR
Put plainly: Inhibition of YFP-tagged human TRPC6 expressed in thapsigargin treated HEK293 cells assessed as reduction in amix-induced calcium level by fluo-4 dye based fluorescence assay. The test is classed as cell-based.

The target of test [3] is Short transient receptor potential channel 7 (Mus musculus, UniProt Q9WVC5). As to the kind of experiment: Inhibition of YFP-tagged mouse TRPC7 expressed in thapsigargin treated HEK293 cells assessed as reduction in amix-induced calcium level by fluo-4 dye based fluorescence assay. In kind it is cell-based.
Chain of Short transient receptor potential channel 7 (Q9WVC5 whole entry): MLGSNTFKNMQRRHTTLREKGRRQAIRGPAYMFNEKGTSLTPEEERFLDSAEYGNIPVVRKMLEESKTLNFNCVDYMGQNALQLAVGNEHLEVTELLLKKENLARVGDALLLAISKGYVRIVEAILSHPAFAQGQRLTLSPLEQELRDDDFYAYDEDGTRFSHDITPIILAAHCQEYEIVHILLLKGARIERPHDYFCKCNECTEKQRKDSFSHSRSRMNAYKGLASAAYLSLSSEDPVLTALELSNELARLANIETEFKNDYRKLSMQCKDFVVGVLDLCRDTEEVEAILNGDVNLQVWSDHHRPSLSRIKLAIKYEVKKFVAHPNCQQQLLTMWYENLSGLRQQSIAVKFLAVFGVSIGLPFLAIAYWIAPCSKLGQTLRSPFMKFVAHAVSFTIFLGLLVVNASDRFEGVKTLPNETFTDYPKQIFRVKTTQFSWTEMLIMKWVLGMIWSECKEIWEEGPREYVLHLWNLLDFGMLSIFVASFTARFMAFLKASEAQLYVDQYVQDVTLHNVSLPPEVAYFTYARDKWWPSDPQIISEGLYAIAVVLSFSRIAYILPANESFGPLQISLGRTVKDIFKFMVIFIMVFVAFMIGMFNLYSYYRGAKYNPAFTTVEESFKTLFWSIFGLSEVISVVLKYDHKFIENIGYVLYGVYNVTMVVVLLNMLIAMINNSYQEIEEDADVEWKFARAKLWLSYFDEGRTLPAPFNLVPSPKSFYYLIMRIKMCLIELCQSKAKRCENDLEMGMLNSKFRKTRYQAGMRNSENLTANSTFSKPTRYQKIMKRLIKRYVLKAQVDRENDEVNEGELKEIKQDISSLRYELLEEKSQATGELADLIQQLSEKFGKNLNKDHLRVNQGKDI
Test [4] concerns the target Transient receptor potential cation channel subfamily V member 2 (Rattus norvegicus, UniProt Q9WUD2). As to the kind of experiment: Inhibition of YFP-tagged rat TRPV2 expressed in HEK293 cells assessed as reduction in calcium level by fluo-4 dye based fluorescence assay. In kind it is cell-based.
For test [5], the target named is T3, Short transient receptor potential channel 4 (Mus musculus, UniProt Q9QUQ5).
T3 sequence (Q9QUQ5 whole entry): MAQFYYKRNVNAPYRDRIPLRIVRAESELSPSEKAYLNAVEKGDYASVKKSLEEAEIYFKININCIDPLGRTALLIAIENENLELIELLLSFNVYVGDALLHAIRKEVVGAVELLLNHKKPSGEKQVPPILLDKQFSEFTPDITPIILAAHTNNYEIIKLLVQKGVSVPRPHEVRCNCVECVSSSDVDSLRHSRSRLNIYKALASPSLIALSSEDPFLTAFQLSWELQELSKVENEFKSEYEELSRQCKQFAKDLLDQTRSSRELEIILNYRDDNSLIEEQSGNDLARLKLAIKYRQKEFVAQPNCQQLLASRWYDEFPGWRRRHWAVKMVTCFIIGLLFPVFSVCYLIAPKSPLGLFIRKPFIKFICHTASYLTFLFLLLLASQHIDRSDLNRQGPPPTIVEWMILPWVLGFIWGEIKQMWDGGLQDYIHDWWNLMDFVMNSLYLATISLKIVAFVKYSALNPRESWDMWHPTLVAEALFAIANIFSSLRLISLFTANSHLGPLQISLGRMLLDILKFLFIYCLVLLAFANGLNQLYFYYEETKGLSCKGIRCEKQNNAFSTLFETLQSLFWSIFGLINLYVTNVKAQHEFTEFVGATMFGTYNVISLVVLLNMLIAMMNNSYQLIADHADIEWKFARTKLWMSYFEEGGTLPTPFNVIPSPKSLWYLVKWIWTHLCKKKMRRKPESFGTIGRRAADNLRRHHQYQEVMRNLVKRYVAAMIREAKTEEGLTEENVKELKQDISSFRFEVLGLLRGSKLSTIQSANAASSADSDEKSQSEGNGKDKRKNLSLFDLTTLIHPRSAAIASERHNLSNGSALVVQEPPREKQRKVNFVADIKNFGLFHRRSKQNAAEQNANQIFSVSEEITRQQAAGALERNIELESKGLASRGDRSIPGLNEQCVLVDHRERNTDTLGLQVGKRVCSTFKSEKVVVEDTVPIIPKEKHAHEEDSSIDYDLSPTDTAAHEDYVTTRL
As to the kind of experiment: Inhibition of mouse TRPC4 by FLIPR assay.

SMILES strings stand for the structures.

Chain of Transient receptor potential cation channel subfamily V member 2 (Q9WUD2 whole entry): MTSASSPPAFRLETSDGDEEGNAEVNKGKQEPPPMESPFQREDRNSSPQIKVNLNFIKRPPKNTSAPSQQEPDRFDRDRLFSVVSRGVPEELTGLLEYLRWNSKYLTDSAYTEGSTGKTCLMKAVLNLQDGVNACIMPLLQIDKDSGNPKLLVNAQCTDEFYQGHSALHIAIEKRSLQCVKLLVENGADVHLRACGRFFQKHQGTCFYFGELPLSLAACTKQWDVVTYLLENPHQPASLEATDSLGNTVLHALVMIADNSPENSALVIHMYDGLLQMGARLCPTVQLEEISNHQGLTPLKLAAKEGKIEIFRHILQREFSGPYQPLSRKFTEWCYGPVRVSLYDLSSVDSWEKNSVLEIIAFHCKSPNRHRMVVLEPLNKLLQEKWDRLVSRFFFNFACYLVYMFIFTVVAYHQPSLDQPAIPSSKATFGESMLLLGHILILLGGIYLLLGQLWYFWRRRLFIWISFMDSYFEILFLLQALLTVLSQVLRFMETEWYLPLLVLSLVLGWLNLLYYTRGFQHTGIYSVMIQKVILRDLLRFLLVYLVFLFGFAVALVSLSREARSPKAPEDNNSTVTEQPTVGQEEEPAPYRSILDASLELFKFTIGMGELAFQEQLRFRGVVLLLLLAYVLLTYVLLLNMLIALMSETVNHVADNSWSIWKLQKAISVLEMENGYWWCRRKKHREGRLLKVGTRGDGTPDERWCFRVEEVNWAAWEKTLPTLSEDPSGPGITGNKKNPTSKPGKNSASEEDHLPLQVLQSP

Consider `Clc1ccc(Cn2c(CN3CCCC3)nc3ccccc32)cc1` [CLEMIZOLE], for which the IC50 in test [1] is 9.1 µM; in test [2] it was 11.3 µM; in test [3], 26.5 µM; in test [4], above 20 µM.

`N#Cc1ccc(O[C@@H]2c3ccccc3C[C@H]2N2CCC[C@@H](N)C2)c(Cl)c1` registered a concentration for half-maximal inhibition (IC50) in test [5] above 10 µM.

(Values after ChEMBL document CHEMBL4376804, “Review of Transient Receptor Potential Canonical (TRPC5) Channel Modulators and Diseases” (J Med Chem, 2019).)
